Results: patent publication US12569515B2, “Gold-containing agents for the treatment of lung infections” (Aurovir Pharma GmbH, priority 2020, dated 2026)

Columns and labels:
[1] = system: mouse model for acute allergic asthma; experiment: Anti-inflammatory action in a mouse model for acute allergic asthma, intranasal application
[2] = biological target: T1, SARS-CoV-2 PLpro (Severe acute respiratory syndrome coronavirus 2, UniProt P0DTD1); experiment: Inhibition of SARS-CoV-2 protease PLpro (fluorogenic substrate Z-Arg-Leu-Arg-Gly-Gly-AMC); assay type: biochemical; settings: 1 h preincubation at 37° C.; for the mixture with respect to the quantity of aurothioglucose
T1 construct: SARS-CoV-2 protease Papain-Like Protease (PLpro)

[3] = biological target: SARS-CoV-2 3CL protease (Mpro) (Severe acute respiratory syndrome coronavirus 2, UniProt P0DTD1); experiment: Inhibition of SARS-CoV-2 protease 3CLpro; assay type: biochemical; settings: 1 h preincubation at 37° C.
Protocol: 50 μL of the test substance solutions or pure HEPES buffer (positive control) was respectively added thereto and the resulting solutions were mixed and incubated for one hour at 37° C.

[4] = system: CaLu-3 cells; experiment: Cytotoxicity in CaLu-3 cells (crystal violet, 24 hours); assay type: cell-based; settings: for Cytotoxicity in CaLu-3 cells: concentrations of up to 100 μM, combinations with respect to AM or AG
Protocol: In order to determine the cytotoxicity, CaLu-3 cells were cultured in 96-well microtitre plates. The cell culture medium was replaced with fresh medium which contained the gold compounds in concentrations of 25, 50 or 100 μM and incubated for 24 hours at 37° C./5% CO2. Next, the remaining cells were photometrically determined using crystal violet stain (Victor X4 microplate reader). The quantity of cells in the treated samples was calculated as a percentage with respect to an untreated control.

[5] = system: bovine coronavirus (BCoV); assay type: cell-based
[6] = biological target: SARS-CoV-2 spike protein / ACE2 receptor interaction (Severe acute respiratory syndrome coronavirus 2, UniProt P0DTC2); experiment: Inhibition of the spike/ACE2 interaction by ELISA; assay type: binding
[7] = biological target: T1, SARS-CoV-2 PLpro; experiment: Removal of zinc from PLpro (FluoZin-3 fluorescence); assay type: biochemical; settings: 50 μM test compound, 500 nM PLpro, up to 90 minutes (FIG. 10)
Protocol: In addition to a cysteine in the catalytic centre of the enzyme, the protease Plpro contains further cysteines in a zinc binding domain which stabilise the structure and function of the enzyme. The removal of the bound zinc constitutes an interesting mechanism for the action of inhibitors for PLpro.
In order to establish whether the inhibitors are Zn-removing agents, the presence of the Zn^2+ cation in solution was determined as follows. The inhibitor compounds were prepared as stock solutions in DMSO, as stock solutions in water or DMSO and diluted one hundred-fold with HEPES buffer ([…], pH 7.5) to 100 μM concentrations. Volumes of 50 μL of SARSCoV-2 PLpro (Elabscience) in HEPES buffer or blank HEPES buffer (control for false positive results) were placed in the wells of a black 96-well microtitre plate (Nunclon, Nunc). Volumes of 50 μL of the inhibitor solutions or 1% DMSO in HEPES buffer (control) were added. […] The resulting solutions were mixed and the fluorescence emission was determined after 10 min, every 10 min over a period of 90 minutes, at 37° C. (λexc=485 nm, λem=535 nm); Victor X4 microtitre plate reader). The relative fluorescence was calculated by dividing the absolute fluorescence emission of the well which contained the inhibitor by the absolute fluorescence of the corresponding well which contained the enzyme but no inhibitor (control). […]

Molecule: auroacetylcysteine
- Total inflammatory cells in bronchial secretions, extent of respiratory tract inflammation, eosinophils and neutrophiles, inflammatory infiltrates in lung parenchyma ([1]; 10 mg/kg over 5 days): reduced
- Inflammatory parameters peribronchially and in the parenchyma ([1]; 10 mg/kg, histology): reduced
- Deaths in treatment group ([1]; AAC group, 5 mice): one death
- Eosinophilic and neutrophilic granulocytes and lymphocytes ([1]; cell populations (FIG. 5)): reduced
- Macrophages ([1]; cell populations (FIG. 5)): increased compared with dexamethasone
- Total cell count in bronchoalveolar lavage ([1]; intranasal, compared with placebo and dexamethasone 1 mg/kg (FIG. 2)): comparable with dexamethasone
- Anti-inflammatory effect in the tissue ([1]; versus dexamethasone 1 mg/kg): comparable with that of dexamethasone

Molecule: O=C(O)CC([S-])C(=O)O.[Au+] (centres unmarked) [aurothiomalate]
- IC50 [2]: 0.6 µM
- IC50 [3]: 22.9 µM
- Cytotoxicity in CaLu-3 cells [4]: no relevant cytotoxicity

Molecule: CC(=O)OC[C@H]1O[C@@H]([S-])[C@H](OC(C)=O)[C@@H](OC(C)=O)[C@@H]1OC(C)=O.CCP(CC)CC.[Au+] [auranofin]
- Quantity of cells, % of the untreated control ([4]; 25 μM, CaLu-3 cells): < 20 % of the untreated control

Molecule: OC[C@H]1O[C@H]([S-])[C@H](O)[C@@H](O)[C@@H]1O.[Au+] [aurothioglucose]
- Reduction in the viral load ([5]; 256 μM aurothioglucose, preincubated 1 h with 100 TCID50 BCoV, MDBK cells, 12-48 hours): 10 fold
- Affinity for the spike protein of SARS-CoV-2 virus [6]: high affinity
- Inhibition of the spike/ACE2 interaction ([6]; 20 μM aurothioglucose (FIG. 8)): resulted in an inhibition
- IC50 [2]: 7.03 µM
- Removal of zinc from PLpro [7]: comparable with the reference compound disulfiram
- IC50 [3]: 8.25 µM
- Cytotoxicity in CaLu-3 cells [4]: no relevant cytotoxicity

Molecule: CC(=O)N[C@@H](CS)C(=O)O [N-acetylcysteine]
- remaining activity at 100 µM ([6]; 100 μM, N-acetylcysteine alone, read-out: Spike/ACE2 interaction remaining, % of control): 97%

Molecule: NC(=O)c1nc(F)c[nH]c1=O [favipiravir]
- Viral load formed on adding favipiravir [5]: reduction in the viral load
